Data: patent publication US11931343B2 (ARCUS BIOSCIENCES, INC., priority 2018, dated 2024)

Target: T1, human CD73 (Homo sapiens, UniProt P21589)
T1 sequence (P21589 27-549): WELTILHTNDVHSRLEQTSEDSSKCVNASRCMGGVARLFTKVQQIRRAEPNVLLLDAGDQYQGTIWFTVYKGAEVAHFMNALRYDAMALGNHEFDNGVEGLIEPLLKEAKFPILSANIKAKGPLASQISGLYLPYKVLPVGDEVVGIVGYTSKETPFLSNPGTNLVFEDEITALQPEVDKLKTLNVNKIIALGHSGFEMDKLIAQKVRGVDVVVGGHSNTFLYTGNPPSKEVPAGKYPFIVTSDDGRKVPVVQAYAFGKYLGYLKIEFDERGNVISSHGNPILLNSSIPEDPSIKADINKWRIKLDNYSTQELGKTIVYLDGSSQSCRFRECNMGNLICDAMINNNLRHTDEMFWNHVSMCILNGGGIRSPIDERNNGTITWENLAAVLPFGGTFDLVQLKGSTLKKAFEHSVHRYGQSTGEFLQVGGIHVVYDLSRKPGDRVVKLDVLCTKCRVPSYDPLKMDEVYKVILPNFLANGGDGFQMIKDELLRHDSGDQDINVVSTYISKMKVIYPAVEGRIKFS
Assay: Inhibition of Ecto-5′-nucleotidase (CD73) activity in CHO-CD73 cells, phosphate release from AMP
Format: cell-based
Conditions: CHO-K1 cells stably transfected with human CD73; 25 μM AMP; 50 minutes, 37° C.; read-out: Potency: CD73 IC50

Row | Structure (SMILES) | IC50 [nM]
1 | Cc1ccc(F)c(-n2nccc2-c2cc3c(cn2)nnn3-c2ccc3cn[nH]c3c2)c1 [Example 409] | > 1000
2 | COCc1ccc(Cn2nccc2-c2cc(F)c3nnn(-c4ccc5[nH]c(=O)[nH]c5c4)c3c2)cc1 [Example 220] | > 1000
3 | Cc1cccc(-n2ncc(C)c2-c2cc(F)c3nnn(-c4ccc5cn[nH]c5c4)c3c2)c1 [Example 416] | > 1000
4 | N#Cc1cccc(-n2nccc2-c2cc(F)c3nnn(-c4ccc5[nH]c(=O)[nH]c5c4)c3c2)c1 [Example 198] | > 1000
5 | Cc1nn(-c2ccc3cn[nH]c3c2)c2cc(-c3ccnn3Cc3ccc(C#N)cc3)cnc12 [Example 317] | 100 to 1000
6 | N#Cc1ccc(Cn2nccc2-c2cc(F)c3nnn(-c4ccc5[nH]c(=O)[nH]c5c4)c3c2)c(C(F)(F)F)c1 [Example 271] | 100 to 1000
7 | N#Cc1ccc(Cn2nccc2-c2cc(F)c3nnn(-c4ccc5[nH]c(=O)[nH]c5c4)c3c2)c(Br)c1 [Example 267] | 100 to 1000
8 | Fc1ccc(Cn2nccc2-c2cnc3cnn(-c4ccc5cn[nH]c5c4)c3c2)nc1 [Example 181] | > 1000
9 | Cc1cccc(-n2nccc2-c2cc(F)c3nnn(-c4ccc5[nH]c(=O)[nH]c5c4)c3c2)c1 [Example 216] | > 1000
10 | N#Cc1ccc(Cn2nccc2-c2ccc3nnn(-c4ccc5[nH]c(=O)[nH]c5c4)c3c2)cc1 [Example 157] | 100 to 1000
11 | O=c1[nH]c2ccc(-n3ncc4ncc(-c5ccnn5Cc5ccc(Cl)cc5Cl)cc43)cc2[nH]1 [Example 190] | 100 to 1000
12 | COC(=O)Cn1nc(-c2ccc3[nH]c(=O)[nH]c3c2)c2cc(-c3ccnn3Cc3ccc(C#N)cc3)cnc21 [Example 325] | > 1000
13 | COCc1n[nH]c2cc(-n3nnc4c(F)cc(-c5ccnn5Cc5ccc(C#N)cc5)cc43)ccc12 [Example 353] | > 1000

More lines, now with the values ahead:

Row | IC50 [nM] | Structure (SMILES)
14 | 100 to 1000 | N#Cc1ccc(Cn2nccc2-c2cc3c(cn2)nnn3-c2ccc3cn[nH]c3c2)cc1 [Example 140]
15 | 100 to 1000 | CC(C)(O)C1CN(Cc2cc(C#N)ccc2Cn2nccc2-c2cc(F)c3nnn(-c4ccc5[nH]c(=O)[nH]c5c4)c3c2)C1 [Example 305]
16 | 100 to 1000 | N#Cc1cc(F)c(Cn2nccc2-c2cc(Cl)c3nnn(-c4ccc5[nH]c(=O)[nH]c5c4)c3c2)cc1F [Example 272]
17 | 100 to 1000 | CC(c1ccc(Cl)cn1)n1nccc1-c1cc(Cl)c2nnn(-c3ccc4cn[nH]c4c3)c2c1 (centres unmarked) [Example 374]
18 | 100 to 1000 | O=c1[nH]c2ccc(-n3nnc4ncc(-c5ccnn5Cc5ccc(Cl)cc5Cl)cc43)cc2[nH]1 [Example 158]
19 | 100 to 1000 | O=c1[nH]c2ccc(-n3nnc4c(F)cc(-c5ccnn5Cc5ccc6cn[nH]c6c5)cc43)cc2[nH]1 [Example 195]
20 | < 100 | Fc1cc(-c2ccnn2Cc2ccc(Cl)cc2Cl)cc2c1nnn2-c1ccc2cn[nH]c2c1 [Example 75]
